Results published in PubChem BioAssay (NCI).
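Where inhibition never reached the appropriate level, the endpoint shown equals the highest concentration tested. Otherwise, values were interpolated linearly from a five-concentration, 48-hour dose response in 96-well plates. TGI denotes the concentration required for complete inhibition of growth.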

Experiments:
Assay in all cases: DTP human tumour cell line panel, 48 h
SR leukemia = test system: SR leukemia
PC-3 prostate = test system: PC-3 prostate
HOP-18 NSCLC = test system: HOP-18 NSCLC
DMS 273 small cell lung = test system: DMS 273 small cell lung
DLD-1 colon = test system: DLD-1 colon
M19-MEL melanoma = test system: M19-MEL melanoma
RXF-631 renal = test system: RXF-631 renal
KM20L2 colon = test system: KM20L2 colon
DMS 114 small cell lung = test system: DMS 114 small cell lung
SNB-78 CNS = test system: SNB-78 CNS
LXFL 529 NSCLC = test system: LXFL 529 NSCLC
XF 498 CNS = test system: XF 498 CNS

SMILES | TGI (SR leukemia) | TGI (PC-3 prostate) | other results
O=C(c1ccccc1)c1ccc2c(c1)nc1n2C(c2c(Cl)cccc2Cl)SC1 (stereo not drawn) | > 100 µM | > 100 µM | –
Nc1nc(Cl)cc(NCC2(O)CC(CO)C2)n1 (stereo not drawn) | > 100 µM | > 100 µM | –
O=C1c2ccccc2C2CNC1(O)c1ccccc12 (stereo not drawn) | > 100 µM | > 100 µM | –
OCC1OC(c2scc3c(=S)nc[nH]c23)C(O)C1O (stereo not drawn) | > 100 µM | > 84.9 µM | –
Clc1ccc(-c2ccc(-c3nnc(CCc4nnc(-c5ccc(-c6ccc(Cl)cc6)o5)o4)o3)o2)cc1 | 5.5 µM | > 100 µM | –
C/C=C/[C@@]1(OC(=O)c2ccccc2)C[C@@H]2CCCC[C@@H]21 | 37.9 µM | 37 µM | –
O=C1c2c(F)c(F)c(F)c(F)c2SC2=NCCN12 | 4.45 µM | 27.2 µM | –
CCN(CC)CCNC(=O)c1ccccc1NC(=O)C(=O)Nc1ccccc1C(=O)NCCN(CC)CC | 47.6 µM | – | TGI (HOP-18 NSCLC): > 100 µM; TGI (DMS 273 small cell lung): > 100 µM; TGI (DLD-1 colon): > 100 µM; TGI (M19-MEL melanoma): 57.5 µM; TGI (RXF-631 renal): > 100 µM; TGI (KM20L2 colon): > 100 µM; TGI (DMS 114 small cell lung): 79.7 µM; TGI (SNB-78 CNS): > 100 µM
Nc1nc2c(=O)c3ccccc3sc2s1 | > 100 µM | > 100 µM | –
O=C1c2ccccc2C(=O)N1n1c(Cc2ccccc2)n[nH]c1=O | > 100 µM | > 100 µM | –
O=C(Cn1c(=O)oc2ccc(C(=O)c3ccc(F)cc3)cc21)c1ccc([N+](=O)[O-])cc1 | > 100 µM | 85.9 µM | –
CC[n+]1cnc(N)c2c(-c3ccc(Cl)cc3)cn(-c3ccc(C)cc3)c21 | 19.1 µM | 25 µM | –
CCCCNC1CCC2(SCCS2)c2[nH]c3ccccc3c21 (stereo not drawn) | 39.6 µM | > 67.3 µM | –
CCOC(=O)CCCn1nnc(C(=O)OCC)c1C(=O)OCC | > 100 µM | > 100 µM | –
Nc1nc(N)c2ncn(CC3CCC(CO)C3)c2n1 (stereo not drawn) | – | > 100 µM | –
O=C(O)c1ccccc1.[Ag] | > 100 µM | 29.8 µM | –
CCOC(=O)c1ccc(N=NN(C)C(=O)C(C)N)cc1 (stereo not drawn) | > 100 µM | > 100 µM | –
O=C(Cc1ccccc1)NCCc1ccc(O)c(O)c1 | 73.3 µM | > 100 µM | –
CC12CC3C(CC1SCC(=O)O2)C3(C)C (stereo not drawn) | – | – | TGI (LXFL 529 NSCLC): > 100 µM; TGI (HOP-18 NSCLC): > 100 µM; TGI (DMS 273 small cell lung): > 100 µM; TGI (DLD-1 colon): > 100 µM; TGI (M19-MEL melanoma): > 100 µM; TGI (XF 498 CNS): > 100 µM; TGI (DMS 114 small cell lung): > 100 µM; TGI (SNB-78 CNS): > 100 µM

SMILES | TGI (SR leukemia) | TGI (PC-3 prostate) | other results
COC(=O)c1cn(CCCC(=O)O)nn1 | – | > 100 µM | –
O=C(CSc1nnc(-c2ccc(N=Cc3ccc(Cl)cc3)cc2)o1)Nc1ccccc1Cl | > 100 µM | – | TGI (LXFL 529 NSCLC): > 100 µM; TGI (HOP-18 NSCLC): > 100 µM; TGI (DMS 273 small cell lung): > 100 µM; TGI (M19-MEL melanoma): > 100 µM; TGI (KM20L2 colon): > 100 µM; TGI (XF 498 CNS): > 100 µM; TGI (DMS 114 small cell lung): > 100 µM; TGI (SNB-78 CNS): > 100 µM
COCOc1ccc(C(=O)C(C)c2ccc(OCOC)cc2OCOC)c(O)c1 (stereo not drawn) | > 100 µM | > 100 µM | –
C1=C(c2ccccc2)CN(c2ccccc2)OC1 | > 100 µM | – | TGI (LXFL 529 NSCLC): > 100 µM; TGI (HOP-18 NSCLC): 69.3 µM; TGI (DMS 273 small cell lung): > 100 µM; TGI (DLD-1 colon): > 100 µM; TGI (M19-MEL melanoma): > 100 µM; TGI (KM20L2 colon): > 100 µM; TGI (XF 498 CNS): > 100 µM; TGI (SNB-78 CNS): > 100 µM
CN(C)CCNc1ccc(C(=O)NCCCN(C)CCCNC(=O)c2ccc(NCCN(C)C)c3c(=O)c4ccccc4[nH]c23)c2[nH]c3ccccc3c(=O)c12 | – | 3.44 µM | –
C=CCNC(=S)Nc1sc2c(c1C(=O)OCC)CC(C)CC2 (stereo not drawn) | 53.6 µM | 50 µM | –
O=C1N[C@H]2c3c(Cl)sc(Cl)c3/C(=N/O)[C@H]2O1 | > 100 µM | > 100 µM | –
CCOc1cc2c(cc1O)/C(=N\N)C[C@@H]1[C@@H]2CC[C@]2(C)[C@@H](O)CC[C@@H]12 | > 100 µM | > 80.1 µM | –
CC1=NN(c2nc(N)nc(-c3ccccc3S(N)(=O)=O)n2)C(C)(C)C1 | 68.5 µM | > 100 µM | –
O=C(CSCC(=O)N/N=C/c1cc(I)cc(I)c1O)N/N=C/c1cc(I)cc(I)c1O | 14 µM | > 100 µM | –
COc1ccc2oc(=N)c(C(=O)Nc3cccc4ccccc34)cc2c1 | 28.5 µM | 31.1 µM | –
COc1cc(/C=C/C(=O)OCC23CC[C@@]4(C(=O)O)CCC(C)[C@H](C)C4C2=CCC2[C@@]4(C)CC[C@H](O)C(C)(C)C4CC[C@]23C)ccc1O (stereo partly drawn) | 61.3 µM | 41.5 µM | –
Cc1[nH]c2ncn(/N=C/c3ccccc3O)c(=N)c2c1Cc1ccccc1 | – | 46.6 µM | –
Clc1ccc2c(SCC3CO3)c3ccccc3nc2c1 (stereo not drawn) | 4.56 µM | 6.86 µM | –
CNC(=O)c1ccccc1-[s+]1c2ccccc2c(=O)n1C (stereo not drawn) | – | > 100 µM | –
C1OCC2S[C@@H]3COCO[C@@H]3C2O1 (stereo partly drawn) | > 100 µM | – | TGI (LXFL 529 NSCLC): > 100 µM; TGI (DMS 273 small cell lung): > 100 µM; TGI (DLD-1 colon): > 100 µM; TGI (M19-MEL melanoma): > 100 µM; TGI (KM20L2 colon): > 100 µM; TGI (XF 498 CNS): > 100 µM; TGI (DMS 114 small cell lung): > 100 µM; TGI (SNB-78 CNS): > 100 µM
COc1cc(/C=C2/SC(c3ccccc3)N(c3ccc(NC(C)=O)cc3)C2=O)cc(OC)c1OC (stereo not drawn) | > 100 µM | – | –
CN(C)CC(/C(Cc1ccccc1)=N\NC(=O)C[n+]1ccccc1)c1ccccc1 (stereo not drawn) | > 100 µM | – | TGI (LXFL 529 NSCLC): > 100 µM; TGI (HOP-18 NSCLC): > 100 µM; TGI (DMS 273 small cell lung): > 100 µM; TGI (M19-MEL melanoma): > 100 µM; TGI (RXF-631 renal): > 100 µM; TGI (KM20L2 colon): > 100 µM; TGI (XF 498 CNS): > 100 µM; TGI (DMS 114 small cell lung): > 100 µM; TGI (SNB-78 CNS): > 100 µM
COc1ccc(Cn2c(C)nc3c2C(=O)c2ccccc2C3=O)cc1 | 10.4 µM | – | TGI (LXFL 529 NSCLC): 28.7 µM; TGI (DMS 273 small cell lung): 19.7 µM; TGI (DLD-1 colon): > 75 µM; TGI (M19-MEL melanoma): 16.7 µM; TGI (KM20L2 colon): > 75 µM; TGI (XF 498 CNS): 27.1 µM; TGI (SNB-78 CNS): > 75 µM
